The source of these data is PMC5484173, “CB1 Allosteric Modulator Org27569 Is an Antagonist/Inverse Agonist of ERK1/2 Signaling” (Cannabis and Cannabinoid Research, 2016).

What is called IC50 is the concentration at which inhibition is half-maximal.

Experiment [1] concerns CB1. On the set-up: method as in PMID 26044547. As to conditions: Chinese hamster ovary cells, AlphaScreen SureFire kit; cited from earlier work. A general note: Alpha assays give light when donor and acceptor beads are brought close together.
Experiment [2] has as its system hCB1-untransfected HEK293 cells. Kind of experiment: phospho-ERK1/2 western blot in hCB1-untransfected HEK293 cells. The format is cell-based, human. Particulars: Org27569 10 μM, 20-min treatment. How it is done:
Vendor authenticated human embryonic kidney (HEK293; American Type Culture Collection, Rockville, MD) cells were cultured in 5% fetal bovine serum (FBS) defined (Hyclone Labs, Logan, UT) in Dulbecco's modified Eagle's medium (DMEM; Corning Cellgro, Manassas, VA) at 37°C and 5% CO2. Cell lines were generated as previously described[32] by transfection of the untagged hCB1 or N-terminally green fluorescent protein (GFP)-tagged rat CB1 receptor with Lipofectamine 2000 (Life Technologies, Gaithersburg, MD). Cells were maintained in a culture medium with geneticin (0.5 mg/mL; G418) and not used after 25 passages. […]
Protein amount (20 μg) was determined by the Bradford method, separated by 10% SDS-PAGE, and transferred to nitrocellulose membranes. […]
Membranes were rinsed thrice in 0.1% Tween-20 in PBS before incubating with LiCor secondary antibodies (IRDye® 800CW Goat anti-Mouse; 1:6666; IRDye 680RD Goat anti-Rabbit; 1:10,000) at room temperature for 1 h. Blots were imaged using LiCor Odyssey imaging software, and phospho-ERK signal was normalized to total ERK and data expressed as percent of vehicle control. […]
Data were normalized as percent vehicle control and analyzed by one- or two-way ANOVA with Newman–Keuls and Bonferroni post hoc tests, and data were considered significant with p<0.05. […]
(In general: In western blotting, separated proteins are transferred to a membrane and probed.)

Experiment [3] deals with T1, human cannabinoid type-1 receptor (hCB1) (Homo sapiens, UniProt P21554).
T1 construct: expressed in transfected cells
The format is cell-based.

Experiment [4] deals with T1, human cannabinoid type-1 receptor (hCB1). Kind of experiment: Subcellular fractionation: phospho-ERK in nuclear-enriched and cytosolic fractions of hCB1 HEK293 cells. The format is cell-based. Particulars: Org27569 10 μM, 20 min, normalized to beta-actin. How it is done: (§1) Cells were plated in poly-D-lysine (PDL)-coated 6-well plates or 100-mm dishes (for fractionation experiments) to a confluency of ∼70–80% and serum starved for 24 h before all treatments. For internalization experiments, cells were plated on PDL-coated cover-slips in a 24-well format. For experiments examining Gi/o protein mediation, cells were exposed to PTX (200 ng/mL) for 18 h before drug treatment when appropriate.
Cells were treated by application of vehicle or antagonist followed immediately by application of vehicle or agonist and incubated in serum-free DMEM at 37°C for times indicated, then washed once with ice-cold phosphate-buffered saline (PBS), and lysed with buffer containing HEPES (50 mM), NaCl (150 mM), EDTA (1 mM), EGTA (1 mM), glycerol (10%), Triton X-100 (1%), MgCl2 (10 μM), NaF (25 mM), Na3VO4 (1 mM), para-nitrophenyl phosphate (20 mM) and EDTA-free protease inhibitor. Lysates were incubated on ice for 30 min, then centrifuged at 16,000 g for 30 min at 4°C, and supernatants were collected.
Cells were grown and treated as described above on 100-mm dishes and washed once with ice-cold PBS. […]
The initial S1 fraction was centrifuged at 10,000 g for 10 min and the resulting S2 fraction served as the cytosolic/membrane fraction. Protein was determined by the NanoDrop™ A280 assay (Thermo Scientific, Wilmington, DE). […]

In experiment [5] the target is T2, GFP-rat CB1 receptor (Rattus norvegicus, UniProt P20272).
T2 construct: expressed in transfected cells
Kind of experiment: Receptor internalization (puncta count) in GFP-rat CB1 HEK293 cells. Type of experiment: cell-based. Particulars: 20-120 min. The procedure: Vendor authenticated human embryonic kidney (HEK293; American Type Culture Collection, Rockville, MD) cells were cultured in 5% fetal bovine serum (FBS) defined (Hyclone Labs, Logan, UT) in Dulbecco's modified Eagle's medium (DMEM; Corning Cellgro, Manassas, VA) at 37°C and 5% CO2. Cell lines were generated as previously described[32] by transfection of the untagged hCB1 or N-terminally green fluorescent protein (GFP)-tagged rat CB1 receptor with Lipofectamine 2000 (Life Technologies, Gaithersburg, MD). Cells were maintained in a culture medium with geneticin (0.5 mg/mL; G418) and not used after 25 passages.
as §1
For internalization experiments, GFP-rat CB1 HEK293 cells were plated on PDL-coated cover-slips in the 24-well format and treated with vehicle (0.2% DMSO), CP55,940 (1 μM), Org27569 (10 μM), or both for 20–120 min. Cell images were taken blinded, converted to grayscale in Photoshop CS5, and then analyzed in ImageJ. Background was subtracted by using a “rolling ball” algorithm (rolling=3). Puncta within the range (size=3–400, circularity=0.01–1.00) were counted. These parameters were used based on image resolution and brightness. The same conditions were applied to all the images and image analyses.

Several values for one entry are separate records, joined by “and”; a condition that tells them apart may be missing. Identical values can stand only once. Entries after “also recorded” stand apart in the source; their conditions may differ. Like-named read-outs stand apart in the source and are kept apart here.

T1 sequence (P21554 whole entry): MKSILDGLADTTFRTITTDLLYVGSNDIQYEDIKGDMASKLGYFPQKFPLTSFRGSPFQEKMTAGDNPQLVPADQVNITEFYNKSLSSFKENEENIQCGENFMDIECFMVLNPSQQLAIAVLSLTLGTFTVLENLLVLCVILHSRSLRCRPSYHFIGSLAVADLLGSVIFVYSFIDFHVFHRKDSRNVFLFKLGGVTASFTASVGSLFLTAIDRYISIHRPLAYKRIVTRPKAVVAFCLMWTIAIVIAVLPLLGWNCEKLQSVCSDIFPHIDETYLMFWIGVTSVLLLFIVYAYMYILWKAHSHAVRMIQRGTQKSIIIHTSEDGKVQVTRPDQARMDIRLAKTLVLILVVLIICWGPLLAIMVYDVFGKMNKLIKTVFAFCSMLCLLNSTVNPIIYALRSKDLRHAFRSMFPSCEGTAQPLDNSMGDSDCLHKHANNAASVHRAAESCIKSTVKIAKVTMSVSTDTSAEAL
T2 sequence (P20272 whole entry): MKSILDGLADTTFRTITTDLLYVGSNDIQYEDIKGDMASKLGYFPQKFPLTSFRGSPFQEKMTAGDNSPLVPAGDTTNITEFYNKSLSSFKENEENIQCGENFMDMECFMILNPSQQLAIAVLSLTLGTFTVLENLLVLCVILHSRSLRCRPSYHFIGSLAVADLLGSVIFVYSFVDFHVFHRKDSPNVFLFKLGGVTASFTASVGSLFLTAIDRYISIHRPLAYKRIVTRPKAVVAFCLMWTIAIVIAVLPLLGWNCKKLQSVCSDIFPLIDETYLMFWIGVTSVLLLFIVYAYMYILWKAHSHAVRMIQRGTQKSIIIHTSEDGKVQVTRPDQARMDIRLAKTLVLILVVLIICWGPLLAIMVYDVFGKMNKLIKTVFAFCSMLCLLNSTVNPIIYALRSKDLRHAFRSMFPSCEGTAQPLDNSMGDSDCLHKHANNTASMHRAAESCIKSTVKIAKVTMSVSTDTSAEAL

On to `CCc1c(C(=O)NCCc2ccc(N3CCCCC3)cc2)[nH]c2ccc(Cl)cc12` [Org27569], for which the “effect on THC-induced ERK activation” value in experiment [1] is reported as “no effect”. Also, the “effect on basal ERK phosphorylation” value was “not in hCB1-untransfected HEK293 cells” in experiment [2] and “significantly reduced basal ERK phosphorylation; also recorded: reduced basal ERK phosphorylation in hCB1-transfected; also recorded: produced a reduction in phospho-ERK levels in control cells” in experiment [3] (Org27569 alone (10 μM), 20-min treatment, hCB1-transfected HEK293 cells, no PTX). For the same molecule, the “bottom of the fit curve (phospho-ERK, percent of vehicle control)” value is listed as 111.3%±7.72% in experiment [3] and 196%±123.2% in experiment [3] (Org27569 concentration-response against 2-AG at EC80 (1.2 μM), 5 min). Further, in experiment [3], the “effect on CP55,940-induced activation of ERK” value is “prevented CP55,940-induced activation of ERK”. Besides, the “extent of antagonism of 2-AG-stimulated ERK activation” value in experiment [3] is given as “did not completely attenuate”. The “extent of antagonism of CP55,940-induced ERK activation” value in experiment [3] is on record as “fully antagonized”. In addition, in experiment [3], the “extent of antagonism of THC-induced ERK activation” value is reported as “did not completely attenuate”. In addition, the “pIC50±SE on ERK phosphorylation” value in experiment [3] was 6.78±0.273 and 6.783±0.273; in experiment [3] (no probe agonist (alone, basal ERK phosphorylation), 20 min), 6.86±0.214; in experiment [3] (probe agonist 2-AG (1.2 μM, EC80), 5 min), 6.26±0.239; in experiment [3] (probe agonist THC (494 nM in table, 500 nM in text; EC80), 5 min), 6.38±0.394. The “effect on ERK phosphorylation, compound alone” value in experiment [3] (10.0 μM alone, 5-min incubation) was “small but nonsignificant reduction of ERK phosphorylation”. Further, the “effect on phospho-ERK levels in PTX-treated cells” value in experiment [3] (Org27569 10.0 μM, 20 min, after overnight PTX (200 ng/mL)) is given as “not in PTX-treated cells”. Moreover, the IC50 is 139 nM in experiment [3] (no probe agonist (alone, basal ERK phosphorylation), cells treated for 20 min); 546 nM in experiment [3] (probe agonist 2-AG (1.2 μM, EC80), cells treated for 5 min, read-out: IC50 on ERK phosphorylation); 417 nM in experiment [3] (probe agonist THC (494 nM, EC80), cells treated for 5 min, read-out: IC50 on ERK phosphorylation); 165 nM in experiment [3] (read-out: IC50 on ERK phosphorylation). Moreover, the “effect on cytosolic phospho-ERK levels” value in experiment [4] (cytosolic fraction) is “significantly decreased”. Moreover, the “effect on nuclear phospho-ERK levels” value in experiment [4] (nuclear-enriched fraction) is “significantly decreased”. For the same molecule, the “receptor internalization, compound alone” value in experiment [5] (Org27569 10 μM alone) was “did not significantly affect receptor internalization”. Also, in experiment [5] (Org27569 10 μM with CP55,940 1 μM), the “effect on CP55,940-induced receptor internalization (increases in puncta)” value is listed as “prevented”.

For the molecule `CCCCC/C=C\C/C=C\C/C=C\C/C=C\CCCC(=O)OC(CO)CO` [2-AG, 2-arachidonoylglycerol], the “EC80 for ERK activation” value in experiment [3] (agonist alone, hCB1 HEK293 cells, 5 min) was determined as 1200 nM.

`CCCCCCC(C)(C)c1ccc([C@@H]2C[C@H](O)CC[C@H]2CCCO)c(O)c1` [CP55,940]: in experiment [3], the “EC80 for ERK activation” value was found to be 6.1 nM and the “effect on ERK phosphorylation, agonist alone” value was “robust increase in ERK phosphorylation”. Besides, the “receptor internalization (puncta), agonist alone” value in experiment [5] (CP55,940 1 μM) is listed as “increases in puncta”.
